Tests used:
Assay type in all cases: biochemical
[1] = molecular target: MMP-3CD (catalytic domain of stromelysin) (Homo sapiens, UniProt P08254); experiment: MMP-3 catalytic domain inhibition (Biological Methods 1, 2, or 5)
Procedure: (§1) Thiopeptolide substrates show virtually no decomposition or hydrolysis at or below neutral pH in the absence of a matrix metalloproteinase enzyme. A typical thiopeptolide substrate commonly utilized for assays is Ac-Pro-Leu-Gly-thioester-Leu-Leu-Gly-OEt. A 100 μL assay mixture will contain a suitable amount of the MMP enzyme such as an amount described in Ye Qi-Zhuang, et al., 1996, supra, 50 mM of N-2-hydroxyethylpiperazine-N′-2-ethanesulfonic acid buffer (“HEPES,” pH 7.0), 10 mM CaCl2, 100 μM thiopeptolide substrate, and 1 mM 5,5′-dithio-bis-(2-nitro-benzoic acid) (DTNB). The thiopeptolide substrate concentration may be varied, for example from 10 to 800 μM to obtain Km and Kcat values. The change in absorbance at 405 nm is monitored on a Thermo Max microplate reader (molecular Devices, Menlo Park, Calif.) at room temperature (22° C.). The calculation of the amount of hydrolysis of the thiopeptolide substrate is based on E412=13600 M^−1 cm^−1 for the DTNB-derived product 3-carboxy-4-nitrothiophenoxide. Assays are carried out with and without matrix metalloproteinase inhibitor compounds, and the amount of hydrolysis is compared for a determination of inhibitory activity of the test compounds.
(§2) Test compounds are evaluated at various concentrations in order to determine their respective IC50 values, the micromolar concentration of compound required to cause a 50% inhibition of catalytic activity of the respective enzyme.
It should be appreciated that the assay buffer used with MMP-3CD was 50 mM N-morpholinoethane sulfonate (“MES”) at pH 6.0 rather than the HEPES buffer at pH 7.0 described above.
(§3) Test compounds can be evaluated according to Biological Method 1 at various concentrations in order to determine their respective IC50 values, typically the micromolar concentration of compound required to cause a 50% inhibition of the hydrolytic activity of the respective enzyme.
(§4) Some representative compounds of Formula I have been evaluated according to Biological Method 1 for their ability to inhibit MMP-13 and other MMP enzymes, including MMP-1, MMP-2, MMP-3, MMP-7, MMP-8, MMP-9, MMP-12, MMP14, and MMP-17. Inhibitor activity versus other MMPs with the compounds may be determined using, for example, MMP-1FL, which refers to full length interstitial collagenase; MMP-2FL, which refers to full length Gelatinase A; MMP-3CD, which refers to the catalytic domain of stromelysin; MMP-7FL, which refers to full length matrilysin; MMP-9FL, which refers to full length Gelatinase B; MMP-13CD, which refers to the catalytic domain of collagenase 3; and MMP-14CD, which refers to the catalytic domain of MMP-14.
(§5) The method of Biological Method 1, except thiopeptolide substrate is replaced with a fluorigenic peptide such as Fluorigenic peptide-1.
(§6) Shown below in Table 1 are the inhibition of MMP-13 catalytic domain, expressed as IC50's, for the compounds of Compound Examples A1 to A8, B1 to B4, and C1 in the column labelled “MMP-13CD IC50 (μM)”.

MMP-8FL = molecular target: T1, MMP-8FL (Homo sapiens, UniProt P22894); experiment: MMP-8 full-length inhibition (Biological Methods 1, 2, or 5)
T1 construct: MMP-8 full-length
T1 sequence (P22894 101-467): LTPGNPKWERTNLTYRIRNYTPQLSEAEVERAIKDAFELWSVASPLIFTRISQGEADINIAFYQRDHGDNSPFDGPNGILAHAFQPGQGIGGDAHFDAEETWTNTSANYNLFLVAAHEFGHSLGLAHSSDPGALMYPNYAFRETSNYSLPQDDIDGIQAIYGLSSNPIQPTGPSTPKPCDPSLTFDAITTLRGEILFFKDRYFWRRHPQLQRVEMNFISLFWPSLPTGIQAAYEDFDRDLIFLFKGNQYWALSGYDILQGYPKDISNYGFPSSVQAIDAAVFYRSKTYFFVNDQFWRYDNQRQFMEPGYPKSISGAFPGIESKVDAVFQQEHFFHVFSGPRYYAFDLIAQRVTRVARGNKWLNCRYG
Procedure: as §1, §2, §3, §4, §5, §6

[2] = molecular target: T2, MMP-13 catalytic domain (MMP-13CD) (Homo sapiens, UniProt P45452); experiment: MMP-13 catalytic domain inhibition (Biological Methods 1, 2, or 5)
T2 construct: particularly MMP-13 catalytic domain (“MMP-13CD”)
Procedure: as §1, §2, §3, §4, §5
Fluorigenic peptide-1 substrate based assay for identifying compounds of Formula I as allosteric inhibitors of MMP-13:
• 50 mM HEPES buffer (pH 7.0) • 10 mM CaCl2 • 10 μM fluorigenic peptide-1 (“FP1”) substrate • 0 or 15 mM acetohydroxamic acid (AcNHOH)=1 Kd • 2% DMSO (with or without inhibitor test compound) • 0.5 nM MMP-13CD enzyme Stock Solutions: • 1) 10× assay buffer: 500 mM HEPES buffer (pH 7.0) plus 100 mM CaCl2 • 2) 10 mM FP1 substrate: (Mca)-Pro-Leu-Gly-Leu-(Dnp)-Dpa-Ala-Arg-NH2 (Bachem, M-1895; “A novel coumarin-labeled peptide for sensitive continuous assays of the matrix metalloproteinases,” Knight C. G., Willenbrock F., and Murphy, G., FEBS Lett., 1992;296:263-266). Is prepared 10 mM stock by dissolving 5 mg FP1 in 0.457 mL DMSO. • 3) 3 M AcNHOH: Is prepared by adding 4 mL H2O and 1 mL 10× assay buffer to 2.25 g AcNHOH (Aldrich 15,903-4). Adjusting pH to 7.0 with NaOH. Diluting volume to 10 mL with H2O. Final solution will contain 3 M AcNHOH, 50 mM HEPES buffer (pH 7.0), and 10 mM CaCl2. • 4) AcNHOH dilution buffer: 50 mM HEPES buffer (pH 7.0) plus 10 mM CaCl2 • 5) MMP-13CD enzyme: Stock concentration=250 nM. • 6) Enzyme dilution buffer: 50 mM HEPES buffer (pH 7.0), 10 mM CaCl2, and 0.005% BRU 35 detergent (Calbiochem 203728; Protein Grade, 10%) Procedure (For One 96-well Microplate): • A. Prepared assay mixture: […]

[3] = molecular target: T3, MMP-1FL (full length interstitial collagenase) (Homo sapiens, UniProt P03956); experiment: MMP-1 full-length inhibition (Biological Methods 1, 2, or 5)
T3 sequence (P03956 100-469): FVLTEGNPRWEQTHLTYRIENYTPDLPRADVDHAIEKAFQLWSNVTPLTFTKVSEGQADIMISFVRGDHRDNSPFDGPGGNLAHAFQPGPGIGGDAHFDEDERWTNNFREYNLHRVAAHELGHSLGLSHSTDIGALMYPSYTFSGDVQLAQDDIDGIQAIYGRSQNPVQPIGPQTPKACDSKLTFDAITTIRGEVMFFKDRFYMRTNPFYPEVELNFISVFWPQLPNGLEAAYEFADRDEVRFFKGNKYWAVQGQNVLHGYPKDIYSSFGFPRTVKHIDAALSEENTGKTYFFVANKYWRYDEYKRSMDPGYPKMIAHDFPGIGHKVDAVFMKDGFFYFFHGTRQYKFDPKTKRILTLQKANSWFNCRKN
Procedure: (§7) Thiopeptolide substrates show virtually no decomposition or hydrolysis at or below neutral pH in the absence of a matrix metalloproteinase enzyme. A typical thiopeptolide substrate commonly utilized for assays is Ac-Pro-Leu-Gly-thioester-Leu-Leu-Gly-OEt. A 100 μL assay mixture will contain a suitable amount of the MMP enzyme such as an amount described in Ye Qi-Zhuang, et al., 1996, supra, 50 mM of N-2-hydroxyethylpiperazine-N′-2-ethanesulfonic acid buffer (“HEPES,” pH 7.0), 10 mM CaCl2, 100 μM thiopeptolide substrate, and 1 mM 5,5′-dithio-bis-(2-nitro-benzoic acid) (DTNB). The thiopeptolide substrate concentration may be varied, for example from 10 to 800 μM to obtain Km and Kcat values. The change in absorbance at 405 nm is monitored on a Thermo Max microplate reader (molecular Devices, Menlo Park, Calif.) at room temperature (22° C.). The calculation of the amount of hydrolysis of the thiopeptolide substrate is based on E412=13600 M^−1 cm^−1 for the DTNB-derived product 3-carboxy-4-nitrothiophenoxide. […]
as §4, with “MMP-14. […]” for “MMP-14.”
as §6

[4] = molecular target: T4, MMP-7FL (full length matrilysin) (Homo sapiens, UniProt P09237); experiment: MMP-7 full-length inhibition (Biological Methods 1, 2, or 5)
T4 sequence (P09237 95-267): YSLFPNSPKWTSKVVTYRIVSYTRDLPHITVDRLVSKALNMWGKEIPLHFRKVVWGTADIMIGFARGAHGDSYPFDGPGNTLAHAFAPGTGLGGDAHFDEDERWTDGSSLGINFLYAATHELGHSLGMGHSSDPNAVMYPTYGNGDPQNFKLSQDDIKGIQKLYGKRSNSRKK
Procedure: as §7
as §4, with “MMP-14. […]” for “MMP-14.”
as §6

[5] = molecular target: MMP-14CD (catalytic domain of MMP-14) (Homo sapiens, UniProt P50281); experiment: MMP-14 catalytic domain inhibition (Biological Methods 1, 2, or 5)
Procedure: as §1, §2, §3, §4, §5, §6

MMP-17CD = molecular target: T5, MMP-17CD (Homo sapiens, UniProt Q9ULZ9); experiment: MMP-17 catalytic domain inhibition (Biological Methods 1, 2, or 5)
T5 construct: MMP-17 catalytic domain (“MMP-17CD”)
T5 sequence (Q9ULZ9 126-295 limits assumed): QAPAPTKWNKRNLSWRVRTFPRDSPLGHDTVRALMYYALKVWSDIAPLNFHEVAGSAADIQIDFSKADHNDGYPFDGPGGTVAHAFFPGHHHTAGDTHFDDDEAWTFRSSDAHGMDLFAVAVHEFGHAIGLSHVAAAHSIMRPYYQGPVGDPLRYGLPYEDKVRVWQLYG
Procedure: as §1, §2, §3, §4, §5, §6

[6] = molecular target: MMP-9FL (full length Gelatinase B) (Homo sapiens, UniProt P14780); experiment: MMP-9 full-length inhibition (Biological Methods 1, 2, or 5)
Sequence of MMP-9FL (full length Gelatinase B) (P14780 94-707): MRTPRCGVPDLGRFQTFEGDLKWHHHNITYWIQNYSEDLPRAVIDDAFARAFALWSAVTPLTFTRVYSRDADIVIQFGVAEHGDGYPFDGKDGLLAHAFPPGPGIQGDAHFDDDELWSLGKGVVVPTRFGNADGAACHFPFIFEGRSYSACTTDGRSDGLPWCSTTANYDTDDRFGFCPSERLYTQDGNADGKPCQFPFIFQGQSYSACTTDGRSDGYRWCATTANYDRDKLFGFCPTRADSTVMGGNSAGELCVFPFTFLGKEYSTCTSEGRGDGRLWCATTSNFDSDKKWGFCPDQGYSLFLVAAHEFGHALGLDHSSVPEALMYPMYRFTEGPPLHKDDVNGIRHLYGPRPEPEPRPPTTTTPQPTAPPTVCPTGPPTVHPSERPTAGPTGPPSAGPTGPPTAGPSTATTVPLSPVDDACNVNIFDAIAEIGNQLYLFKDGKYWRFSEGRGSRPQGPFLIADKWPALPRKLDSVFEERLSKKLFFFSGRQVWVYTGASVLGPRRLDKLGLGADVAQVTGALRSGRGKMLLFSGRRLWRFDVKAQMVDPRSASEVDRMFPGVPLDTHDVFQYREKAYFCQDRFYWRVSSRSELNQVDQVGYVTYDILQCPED
Procedure: as §1, §2, §3, §4, §5, §6

MMP-12CD = molecular target: T6, MMP-12CD (Homo sapiens, UniProt P39900); experiment: MMP-12 catalytic domain inhibition (Biological Methods 1, 2, or 5)
T6 construct: MMP-12 catalytic domain (“MMP-12CD”)
T6 sequence (P39900 106-263 limits assumed): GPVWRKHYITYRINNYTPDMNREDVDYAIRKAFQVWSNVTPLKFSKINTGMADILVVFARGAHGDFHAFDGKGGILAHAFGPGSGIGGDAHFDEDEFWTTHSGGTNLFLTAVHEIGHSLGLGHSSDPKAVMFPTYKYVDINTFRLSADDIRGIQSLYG
Procedure: as §1, §2, §3, §4, §5, §6

Sequence of MMP-3CD (catalytic domain of stromelysin) (P08254 100-272 limits assumed): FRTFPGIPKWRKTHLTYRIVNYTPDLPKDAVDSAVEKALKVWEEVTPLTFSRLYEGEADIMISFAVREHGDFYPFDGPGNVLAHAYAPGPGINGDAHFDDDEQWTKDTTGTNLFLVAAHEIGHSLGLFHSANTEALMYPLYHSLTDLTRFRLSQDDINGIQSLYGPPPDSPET

IC50 [1]	IC50 (MMP-8FL)	IC50 [2]	IC50 [3]	IC50 [4]	IC50 [5]	IC50 (MMP-17CD)	IC50 [6]	IC50 (MMP-12CD)	SMILES
> 65 µM	> 30 µM	0.013 µM			> 30 µM	> 30 µM	> 30 µM	> 30 µM	COc1ccc(CC(=O)Nc2ccc3ccn(Cc4ccc(C(=O)O)cc4)c(=O)c3c2)cc1 [B2]
> 65 µM	> 30 µM	0.292 µM			> 30 µM	> 30 µM	> 30 µM	> 30 µM	O=C(Cc1cccc(F)c1)Nc1ccc2ccn(Cc3ccc(C(=O)O)cc3)c(=O)c2c1 [B3]
> 65 µM	> 30 µM	0.048 µM			> 30 µM	> 30 µM	> 30 µM	> 30 µM	O=C(Cc1ccc(F)cc1)Nc1ccc2ccn(Cc3ccc(C(=O)O)cc3)c(=O)c2c1 [B4]

More lines, now with the values behind:

SMILES	IC50 [1]	IC50 (MMP-8FL)	IC50 [2]	IC50 [3]	IC50 [4]	IC50 [5]	IC50 (MMP-17CD)	IC50 [6]	IC50 (MMP-12CD)
COc1cccc(CC(=O)Nc2cc3c(=O)n(Cc4ccc(C(=O)O)cc4)cnc3cc2F)c1 [A2]	> 100 µM	> 100 µM	0.053 µM	> 100 µM	> 100 µM	> 100 µM	> 100 µM		
O=C(Cc1ccc(F)cc1)Nc1ccc2ncn(Cc3ccc(C(=O)O)cc3)c(=O)c2c1 [A4]	> 100 µM	> 100 µM	0.036 µM	> 100 µM	> 100 µM	> 30 µM	> 100 µM	> 100 µM	
O=C(Cc1cccc(F)c1)Nc1ccc2ncn(Cc3ccc(C(=O)O)cc3)c(=O)c2c1 [A5]	> 100 µM	> 100 µM	0.25 µM	> 100 µM	> 100 µM	> 30 µM	> 100 µM	> 100 µM	
COc1ccc(CC(=O)Nc2cc3c(=O)n(Cc4ccc(C(=O)O)cc4)cnc3cc2F)cc1 [A6]			0.0053 µM						
Cc1ccc(CC(=O)Nc2cc3c(=O)n(Cc4ccc(C(=O)O)cc4)cnc3cc2F)cc1 [A7]			0.1 µM						
O=C(Cc1ccc(O)cc1)Nc1cc2c(=O)n(Cc3ccc(C(=O)O)cc3)cnc2cc1F [A8]			0.021 µM						
COc1cccc(CC(=O)Nc2ccc3ncn(Cc4ccc(C(=O)O)cc4)c(=O)c3c2)c1 [Compound Example A1, 4-{6-[2-(3-Methoxy-phenyl)-acetylamino]-4-oxo-4H-quinazolin-3-ylmethyl}-benzoic acid]	> 65 µM	> 30 µM	0.038 µM			> 30 µM	> 30 µM	> 30 µM	> 30 µM
COc1cccc(CC(=O)Nc2ccc3ccn(Cc4ccc(C(=O)O)cc4)c(=O)c3c2)c1 [Compound Example B1, 4-{7-[2-(3-Methoxy-phenyl)-acetylamino]-1-oxo-1H-isoquinolin-2-ylmethyl}-benzoic acid]	> 65 µM	> 30 µM	0.053 µM			> 30 µM	> 30 µM	> 30 µM	> 30 µM

From patent US20060247231A1, “Amide and ester matrix metalloproteinase inhibitors” (Warner-Lambert Company LLC, priority 2003, published 2006)
